Like-named read-outs stand apart in the source and are kept apart here.
Columns and labels:
Assay in all cases: biochemical
Design in all cases: KINOMEscan active site-directed competition binding assay (DiscoveRx), 456 kinases, per cent of control at 300 nM
Details in all cases: read-out: Percent of Control (%)
NEK7 = NEK7 (Homo sapiens, UniProt Q8TDX7)
Method in brief: (§1)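 Active site-directed competition binding (KINOMEscan) across a 456-kinase panel, compounds tested at 300 nmol/L.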

MST2 = target: T1, MST2 (Homo sapiens, UniProt Q13188)
T1 construct: gene STK3
Method in brief: as §1

CLK2 = CLK2 (Homo sapiens, UniProt P49760)
Method in brief: as §1

PIP5K2C = target: T2, PIP5K2C (Homo sapiens, UniProt Q8TBX8)
T2 construct: gene PIP4K2C
Method in brief: as §1

TRPM6 = TRPM6 (Homo sapiens, UniProt Q9BX84)
Method in brief: as §1

PRKCQ = PRKCQ (Homo sapiens, UniProt Q04759)
Method in brief: as §1

[1] = target: T3, ABL1(F317L)-nonphosphorylated (Homo sapiens, UniProt P00519, F317L)
T3 construct: nonphosphorylated
Method in brief: as §1

ACVR1 = ACVR1 (Homo sapiens, UniProt Q04771)
Method in brief: as §1

EGFR(L858R) = EGFR(L858R) (Homo sapiens, UniProt P00533, L858R)
Method in brief: as §1

RIPK1 = RIPK1 (Homo sapiens, UniProt Q13546)
Method in brief: as §1

[2] = target: T4, ABL1(M351T)-phosphorylated (Homo sapiens, UniProt P00519, M351T)
T4 construct: phosphorylated
Method in brief: as §1

CDK2 = CDK2 (Homo sapiens, UniProt P24941)
Method in brief: as §1

MYO3B = MYO3B (Homo sapiens, UniProt Q8WXR4)
Method in brief: as §1

SRPK3 = SRPK3 (Homo sapiens, UniProt Q9UPE1)
Method in brief: as §1

[3] = target: T5, ABL1(T315I)-nonphosphorylated (Homo sapiens, UniProt P00519, T315I)
T5 construct: nonphosphorylated
Method in brief: as §1

MET = MET (Homo sapiens, UniProt P08581)
Method in brief: as §1

DLK = target: T6, DLK (Homo sapiens, UniProt Q12852)
T6 construct: gene MAP3K12
Method in brief: as §1

DYRK1B = DYRK1B (Homo sapiens, UniProt Q9Y463)
Method in brief: as §1

FLT3(D835Y) = FLT3(D835Y) (Homo sapiens, UniProt P36888, D835Y)
Method in brief: as §1

SGK2 = SGK2 (Homo sapiens, UniProt Q9HBY8)
Method in brief: as §1

PRKCI = PRKCI (Homo sapiens, UniProt P41743)
Method in brief: as §1

AKT1 = AKT1 (Homo sapiens, UniProt P31749)
Method in brief: as §1

Sequence of ACVR1 (Q04771 whole entry): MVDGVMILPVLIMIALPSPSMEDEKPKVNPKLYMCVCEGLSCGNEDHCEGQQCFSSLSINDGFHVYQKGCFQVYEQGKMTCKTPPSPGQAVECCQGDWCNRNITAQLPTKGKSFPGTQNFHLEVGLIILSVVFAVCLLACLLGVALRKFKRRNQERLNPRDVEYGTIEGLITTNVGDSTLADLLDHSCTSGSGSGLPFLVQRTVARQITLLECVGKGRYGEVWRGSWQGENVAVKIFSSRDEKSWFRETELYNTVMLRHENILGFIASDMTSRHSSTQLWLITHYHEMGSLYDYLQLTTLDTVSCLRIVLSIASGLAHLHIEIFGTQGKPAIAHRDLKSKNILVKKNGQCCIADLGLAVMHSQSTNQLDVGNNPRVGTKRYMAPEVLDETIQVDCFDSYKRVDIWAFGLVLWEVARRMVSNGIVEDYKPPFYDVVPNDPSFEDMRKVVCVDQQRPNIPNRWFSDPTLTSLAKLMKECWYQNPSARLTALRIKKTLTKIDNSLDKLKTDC
Sequence of AKT1 (P31749 whole entry): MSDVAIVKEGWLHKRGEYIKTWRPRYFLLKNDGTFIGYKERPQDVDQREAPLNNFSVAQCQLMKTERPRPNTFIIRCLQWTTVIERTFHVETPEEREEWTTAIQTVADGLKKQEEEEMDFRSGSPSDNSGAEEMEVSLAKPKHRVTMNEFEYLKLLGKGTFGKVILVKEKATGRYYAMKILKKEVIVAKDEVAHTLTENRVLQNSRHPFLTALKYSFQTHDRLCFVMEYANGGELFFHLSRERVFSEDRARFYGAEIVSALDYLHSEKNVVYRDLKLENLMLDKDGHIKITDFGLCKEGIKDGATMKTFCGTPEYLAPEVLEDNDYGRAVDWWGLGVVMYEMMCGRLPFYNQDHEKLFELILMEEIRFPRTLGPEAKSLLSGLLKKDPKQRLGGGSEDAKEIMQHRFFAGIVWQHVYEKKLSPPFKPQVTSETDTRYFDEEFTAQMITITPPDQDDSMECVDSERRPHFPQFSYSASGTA
Sequence of PRKCQ (Q04759 whole entry): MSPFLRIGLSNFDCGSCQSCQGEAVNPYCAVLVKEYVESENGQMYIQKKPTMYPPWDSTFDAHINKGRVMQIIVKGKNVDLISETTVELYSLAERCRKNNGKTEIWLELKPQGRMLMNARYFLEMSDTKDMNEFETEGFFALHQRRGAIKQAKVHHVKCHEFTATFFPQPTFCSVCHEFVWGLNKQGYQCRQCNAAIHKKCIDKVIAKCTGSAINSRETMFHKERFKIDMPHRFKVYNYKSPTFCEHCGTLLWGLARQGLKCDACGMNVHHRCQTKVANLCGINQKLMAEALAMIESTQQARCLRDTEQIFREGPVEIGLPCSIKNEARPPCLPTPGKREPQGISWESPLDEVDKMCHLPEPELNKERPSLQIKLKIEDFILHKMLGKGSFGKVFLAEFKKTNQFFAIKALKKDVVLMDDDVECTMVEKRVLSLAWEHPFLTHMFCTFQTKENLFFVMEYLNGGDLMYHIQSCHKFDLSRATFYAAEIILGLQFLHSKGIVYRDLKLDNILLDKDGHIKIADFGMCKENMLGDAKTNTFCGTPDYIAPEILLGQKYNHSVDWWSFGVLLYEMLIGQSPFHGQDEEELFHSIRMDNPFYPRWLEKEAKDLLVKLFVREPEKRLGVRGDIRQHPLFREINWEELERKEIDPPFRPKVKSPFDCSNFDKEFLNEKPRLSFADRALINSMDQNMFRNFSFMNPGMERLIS
Sequence of SRPK3 (Q9UPE1 whole entry): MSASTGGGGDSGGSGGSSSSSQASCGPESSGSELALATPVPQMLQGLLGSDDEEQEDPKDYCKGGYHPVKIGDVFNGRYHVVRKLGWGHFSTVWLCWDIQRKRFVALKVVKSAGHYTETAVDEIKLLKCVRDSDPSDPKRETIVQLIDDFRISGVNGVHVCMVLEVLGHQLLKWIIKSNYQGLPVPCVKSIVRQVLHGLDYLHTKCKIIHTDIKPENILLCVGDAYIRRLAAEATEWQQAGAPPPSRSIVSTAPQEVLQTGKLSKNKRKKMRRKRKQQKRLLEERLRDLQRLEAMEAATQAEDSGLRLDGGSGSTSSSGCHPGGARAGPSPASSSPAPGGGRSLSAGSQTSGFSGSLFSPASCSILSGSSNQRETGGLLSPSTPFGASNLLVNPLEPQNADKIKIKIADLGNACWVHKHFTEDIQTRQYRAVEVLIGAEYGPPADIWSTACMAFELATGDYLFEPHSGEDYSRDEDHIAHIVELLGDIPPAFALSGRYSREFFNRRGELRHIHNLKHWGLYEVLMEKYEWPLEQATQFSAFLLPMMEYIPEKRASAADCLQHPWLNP
T1 sequence (Q13188 whole entry): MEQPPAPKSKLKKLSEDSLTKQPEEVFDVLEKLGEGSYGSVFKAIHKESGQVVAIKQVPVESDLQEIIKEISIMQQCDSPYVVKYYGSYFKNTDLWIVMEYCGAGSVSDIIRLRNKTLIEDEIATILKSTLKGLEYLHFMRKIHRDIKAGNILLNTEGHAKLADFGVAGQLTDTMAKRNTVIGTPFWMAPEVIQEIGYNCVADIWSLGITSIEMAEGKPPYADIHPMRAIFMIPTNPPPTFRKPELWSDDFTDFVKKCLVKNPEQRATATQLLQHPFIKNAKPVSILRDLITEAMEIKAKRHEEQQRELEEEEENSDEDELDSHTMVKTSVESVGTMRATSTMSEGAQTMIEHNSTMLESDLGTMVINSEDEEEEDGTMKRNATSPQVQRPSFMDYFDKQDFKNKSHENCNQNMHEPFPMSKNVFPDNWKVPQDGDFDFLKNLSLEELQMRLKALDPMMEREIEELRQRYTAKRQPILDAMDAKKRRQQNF
Sequence of TRPM6 (Q9BX84 whole entry): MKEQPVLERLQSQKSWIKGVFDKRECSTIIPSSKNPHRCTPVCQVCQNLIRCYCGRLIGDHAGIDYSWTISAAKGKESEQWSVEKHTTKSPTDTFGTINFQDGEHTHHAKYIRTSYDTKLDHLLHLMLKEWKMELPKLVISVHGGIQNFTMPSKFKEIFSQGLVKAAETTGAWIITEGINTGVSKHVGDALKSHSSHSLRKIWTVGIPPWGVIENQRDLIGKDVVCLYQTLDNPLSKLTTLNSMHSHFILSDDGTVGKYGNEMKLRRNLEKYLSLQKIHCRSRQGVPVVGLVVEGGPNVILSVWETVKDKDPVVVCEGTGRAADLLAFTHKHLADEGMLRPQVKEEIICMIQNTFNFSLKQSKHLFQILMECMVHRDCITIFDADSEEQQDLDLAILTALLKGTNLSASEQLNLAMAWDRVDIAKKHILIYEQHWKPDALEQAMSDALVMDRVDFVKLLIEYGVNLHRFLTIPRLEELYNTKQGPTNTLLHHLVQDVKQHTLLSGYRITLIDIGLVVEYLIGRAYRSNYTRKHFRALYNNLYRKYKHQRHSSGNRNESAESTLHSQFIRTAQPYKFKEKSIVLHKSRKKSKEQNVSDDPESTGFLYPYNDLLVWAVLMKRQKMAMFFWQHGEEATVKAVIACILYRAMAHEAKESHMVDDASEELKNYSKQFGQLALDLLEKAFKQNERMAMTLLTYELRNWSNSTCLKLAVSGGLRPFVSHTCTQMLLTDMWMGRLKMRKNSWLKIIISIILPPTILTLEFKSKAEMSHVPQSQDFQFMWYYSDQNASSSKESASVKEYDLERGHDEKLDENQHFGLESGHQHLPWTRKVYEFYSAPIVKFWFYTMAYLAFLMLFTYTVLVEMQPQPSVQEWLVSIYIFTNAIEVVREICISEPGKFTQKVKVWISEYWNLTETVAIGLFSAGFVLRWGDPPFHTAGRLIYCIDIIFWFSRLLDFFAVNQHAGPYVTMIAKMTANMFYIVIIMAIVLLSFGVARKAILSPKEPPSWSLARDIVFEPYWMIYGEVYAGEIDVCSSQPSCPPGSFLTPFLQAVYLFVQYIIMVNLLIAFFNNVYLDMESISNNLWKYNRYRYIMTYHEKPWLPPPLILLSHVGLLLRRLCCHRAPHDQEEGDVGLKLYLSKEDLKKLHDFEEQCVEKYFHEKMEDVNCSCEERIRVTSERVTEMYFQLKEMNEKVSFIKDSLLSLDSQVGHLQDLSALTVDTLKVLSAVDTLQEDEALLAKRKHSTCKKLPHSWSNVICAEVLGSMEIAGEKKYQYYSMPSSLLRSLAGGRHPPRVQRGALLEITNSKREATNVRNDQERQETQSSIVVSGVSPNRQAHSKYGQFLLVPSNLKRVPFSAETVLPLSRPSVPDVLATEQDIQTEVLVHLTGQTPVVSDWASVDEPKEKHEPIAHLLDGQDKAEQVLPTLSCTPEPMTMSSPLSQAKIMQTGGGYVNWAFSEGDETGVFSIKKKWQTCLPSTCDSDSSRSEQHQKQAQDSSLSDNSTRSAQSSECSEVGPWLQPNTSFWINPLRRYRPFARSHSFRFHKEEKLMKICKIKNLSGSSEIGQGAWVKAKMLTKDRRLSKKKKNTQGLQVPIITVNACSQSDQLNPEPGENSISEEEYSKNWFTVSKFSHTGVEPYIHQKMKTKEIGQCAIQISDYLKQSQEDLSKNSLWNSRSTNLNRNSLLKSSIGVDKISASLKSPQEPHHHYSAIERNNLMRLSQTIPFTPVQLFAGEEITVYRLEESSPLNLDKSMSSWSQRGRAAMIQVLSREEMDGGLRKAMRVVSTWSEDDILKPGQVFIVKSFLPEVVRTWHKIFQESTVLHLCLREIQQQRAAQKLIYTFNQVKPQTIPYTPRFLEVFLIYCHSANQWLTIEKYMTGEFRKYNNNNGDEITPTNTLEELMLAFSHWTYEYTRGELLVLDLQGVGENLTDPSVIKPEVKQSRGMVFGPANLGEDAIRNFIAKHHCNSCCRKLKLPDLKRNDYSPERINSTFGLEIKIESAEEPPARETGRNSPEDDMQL
Sequence of NEK7 (Q8TDX7 whole entry): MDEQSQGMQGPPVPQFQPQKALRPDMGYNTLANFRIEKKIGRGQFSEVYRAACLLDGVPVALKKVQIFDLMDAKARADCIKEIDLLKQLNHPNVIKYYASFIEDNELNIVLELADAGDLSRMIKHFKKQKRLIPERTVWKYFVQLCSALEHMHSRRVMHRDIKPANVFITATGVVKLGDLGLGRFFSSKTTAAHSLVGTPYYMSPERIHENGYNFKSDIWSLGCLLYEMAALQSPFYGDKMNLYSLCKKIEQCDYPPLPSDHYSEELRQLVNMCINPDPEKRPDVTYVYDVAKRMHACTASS

O=C(/C=C/c1cnccc1-c1ccc(F)cc1)Nc1ccc(CCc2nnco2)cc1 [T-418, (2E)-3-(4-(4-fluorophenyl)pyridin-3-yl)-N-(4-(2-(1,3,4-oxadiazol-2-yl)ethyl)phenyl)acrylamide]
remaining binding at 0.3 µM (NEK7; sheet T-418): 100%
remaining binding at 0.3 µM (MST2; sheet T-418): 46%
remaining binding at 0.3 µM (CLK2; sheet T-418): 88%
remaining binding at 0.3 µM (PIP5K2C; sheet T-418): 74%
remaining binding at 0.3 µM (TRPM6; sheet T-418): 90%
remaining binding at 0.3 µM (PRKCQ; sheet T-418): 83%
remaining binding at 0.3 µM ([1]; sheet T-418): 100%
remaining binding at 0.3 µM (ACVR1; sheet T-418): 100%
remaining binding at 0.3 µM (EGFR(L858R); sheet T-418): 66%
remaining binding at 0.3 µM (RIPK1; sheet T-418): 83%
remaining binding at 0.3 µM ([2]; sheet T-418): 100%
remaining binding at 0.3 µM (CDK2; sheet T-418): 92%
remaining binding at 0.3 µM (MYO3B; sheet T-418): 52%
remaining binding at 0.3 µM (SRPK3; sheet T-418): 100%
remaining binding at 0.3 µM ([3]; sheet T-418): 100%
remaining binding at 0.3 µM (MET; sheet T-418): 92%
remaining binding at 0.3 µM (DLK; sheet T-418): 91%
remaining binding at 0.3 µM (DYRK1B; sheet T-418): 67%
remaining binding at 0.3 µM (FLT3(D835Y); sheet T-418): 100%
remaining binding at 0.3 µM (SGK2; sheet T-418): 94%
remaining binding at 0.3 µM (PRKCI; sheet T-418): 70%
remaining binding at 0.3 µM (AKT1; sheet T-418): 85%

Cc1ncccc1Oc1sc(C(N)=O)c2c1-c1c(cnn1C)CC2 [T-474, 1-methyl-8-((2-methylpyridin-3-yl)oxy)-4,5-dihydro-1H-thieno[3,4-g]indazole-6-carboxamide]
remaining binding at 0.3 µM (NEK7): 100%
remaining binding at 0.3 µM (MST2): 50%
remaining binding at 0.3 µM (CLK2): 46%
remaining binding at 0.3 µM (PIP5K2C): 74%
remaining binding at 0.3 µM (TRPM6): 95%
remaining binding at 0.3 µM (PRKCQ): 100%
remaining binding at 0.3 µM [1]: 100%
remaining binding at 0.3 µM (ACVR1): 100%
remaining binding at 0.3 µM (EGFR(L858R)): 71%
remaining binding at 0.3 µM (RIPK1): 95%
remaining binding at 0.3 µM [2]: 100%
remaining binding at 0.3 µM (CDK2): 98%
remaining binding at 0.3 µM (MYO3B): 84%
remaining binding at 0.3 µM (SRPK3): 100%
remaining binding at 0.3 µM [3]: 100%
remaining binding at 0.3 µM (MET): 100%
remaining binding at 0.3 µM (DLK): 94%
remaining binding at 0.3 µM (DYRK1B): 24%
remaining binding at 0.3 µM (FLT3(D835Y)): 60%
remaining binding at 0.3 µM (SGK2): 95%
remaining binding at 0.3 µM (PRKCI): 77%
remaining binding at 0.3 µM (AKT1): 98%

Reference: PMC5862592, “CDK8/19 inhibition induces premature G1/S transition and ATR-dependent cell death in prostate cancer cells” (Oncotarget, 2018)
